# Experiments:
# [1] = target: T1, PPARG (Homo sapiens, UniProt P37231); assay: RT112/84 FABP4-NLucP reporter gene assay, antagonist mode with rosiglitazone; assay type: cell-based; details: in the presence of rosiglitazone
# T1 construct: endogenous in cells; host or cells: RT112/84 bladder cancer cells (FABP4-NLucP knock-in clone)
# T1 sequence (P37231 1-477 isoform P37231-2): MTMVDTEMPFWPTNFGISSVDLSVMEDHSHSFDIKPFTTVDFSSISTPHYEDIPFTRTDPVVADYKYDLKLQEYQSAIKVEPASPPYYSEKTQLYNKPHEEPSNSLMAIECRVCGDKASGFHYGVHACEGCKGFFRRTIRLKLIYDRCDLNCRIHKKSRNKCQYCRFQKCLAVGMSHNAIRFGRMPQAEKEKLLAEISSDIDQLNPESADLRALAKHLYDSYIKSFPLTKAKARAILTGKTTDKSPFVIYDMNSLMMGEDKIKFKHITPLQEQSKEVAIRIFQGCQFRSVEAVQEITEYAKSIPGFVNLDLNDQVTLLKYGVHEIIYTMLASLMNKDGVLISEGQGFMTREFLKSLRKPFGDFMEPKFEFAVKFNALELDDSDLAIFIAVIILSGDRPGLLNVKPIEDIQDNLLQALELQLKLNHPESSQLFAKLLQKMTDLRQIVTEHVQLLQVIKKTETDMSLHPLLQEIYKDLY
# Procedure: RT112-FABP4-NLucP Reporter Gene Assay: Reporter cell line was generated by engineering NanoLuc gene into the 3′ UTR of FABP4 in RT112/84 cells using CRISPR/Cas9 guided genome engineering. Single cell clones were generated and the clone with the widest dynamic range selected for use. Assays were performed by seeding 384-well plates with ˜10,000 cells per well in MEMalpha containing 10% FBS and dosing compounds at indicated concentration using HP D300 digital dispenser (HP/Tecan). 18-24 hours after dosing with compound, cells were assayed using NanoGlo Luciferase Assay Reagent (Promega Madison, WI) and plates were read using EnVision Multilabel Reader (PerkinElmer Waltham, MA).
# [2] = tested on: UM-UC-9 cells; assay: Kinetic proliferation assay (IncuCyte), percent of DMSO control; assay type: cell-based, human; details: 100 nmol/L; DMSO control at 50% confluency
# Excerpt: This assay was expanded to include an additional 8 representative bladder cancer cell lines, including cell lines with PPARG amplification, RXRA p.S427F mutation, activated gene signature, and control cell lines with low level expression of PPARG and target genes. […] Representative data for the UM-UC-9 cell line are shown in FIG. 6B, and is tabulated for the tested bladder cancer cell lines in Table 1. […] Similar results were obtained with these cell lines in parallel studies using clonogenic assays to quantify colony-forming ability (FIG. 10).
# Proliferation Assays: To enable cell-counting experiments, cell lines were transduced with a lentiviral vector encoding nuclear-targeted GFP, TagGFP2-H2B (Evrogen), and stable pools generated following selection for puromycin resistance. […] For kinetic proliferation assays, 96-well plates (n 1% 4 per condition) were imaged and counted every two hours using IncuCyte Zoom (Essen BioScience). […] For endpoint assays to measure dose-response, cells were plated in 384-well plates, dosed with compound, and upon reaching approximately 70% to 90% confluence in control wells, cells were either counted using fluorescence imaging (Incu-Cyte Zoom) or incubated with CyQuant (Thermo Fisher) at the indicated time and plates were read with a fluorescent plate reader.
# [3] = tested on: PPARG-activated pancreatic and colorectal cancer cell lines; assay: Kinetic proliferation assay in pancreatic and colorectal cancer cell lines; assay type: cell-based; details: 500 nM
# Excerpt: To enable cell-counting, cell lines were transduced with a lentiviral vector encoding nuclear-targeted GFP (TagGFP2-H2B), and stable pools generated following selection for puromycin-resistance. Cell lines were maintained for at least 7 days following selection prior to expansion and seeding into 96-well plates for further analysis. For kinetic proliferation assays, 96-well plates were imaged in phase-contrast and green fluorescence mode every two hours using IncuCyte Zoom (Essen BioScience, Ann Arbor MI). Using IncuCyte software, the number of fluorescent nuclei were counted to monitor quantitative changes in cell number over time. Media and compounds were replaced approximately every 3-4 days.
# DMSO treatment was also included as a vehicle control.
# [4] = target: T2, PPARG ligand-binding domain - TRAP220/MED1 coactivator peptide (Homo sapiens, UniProt P37231); assay: TR-FRET coactivator assay, TRAP220/MED1 peptide; assay type: biochemical
# T2 construct: purchased ThermoFisher Scientific
# T2 sequence (P37231 238-503 limits assumed): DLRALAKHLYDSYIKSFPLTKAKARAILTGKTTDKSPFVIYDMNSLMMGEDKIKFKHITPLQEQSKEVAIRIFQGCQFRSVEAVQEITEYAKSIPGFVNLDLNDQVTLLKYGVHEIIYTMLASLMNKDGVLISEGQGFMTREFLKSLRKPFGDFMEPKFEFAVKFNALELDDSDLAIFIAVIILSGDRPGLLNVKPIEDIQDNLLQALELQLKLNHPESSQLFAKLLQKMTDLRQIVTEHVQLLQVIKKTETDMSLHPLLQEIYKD
# [5] = target: T3, PPARG ligand-binding domain - NCoR/NCOR1 corepressor peptide (Homo sapiens, UniProt P37231); assay: TR-FRET corepressor assay, NCoR/NCOR1 peptide; assay type: biochemical; details: data not shown
# T3 construct: purchased ThermoFisher Scientific
# T3 sequence (P37231 238-503 limits assumed): T2 sequence (P37231 238-503 limits assumed)
# Procedure: To evaluate inverse-agonism, a TR-FRET PPARG co-repressor assay (ThermoFisher) that measures recruitment of a fluorescent NCOR1 or NCOR2 corepressor peptide to the PPARG ligand-binding domain was used (ThermoFisher).
# In addition to the PPARG-NCOR2 interaction assay described above, interactions between PPARG and a peptide from the corepressor NCOR1 were measured.
compound,measurement,setting,value
O=C(Nc1ccccc1)c1cc([N+](=O)[O-])ccc1Cl [GW9662],effect on agonist-induced signal,[1],decreased the agonist-induced signal back to the original baseline
same,effect on proliferation relative to control,[2],no effect
same,sensitivity of cell lines,[3],not sensitive
same,effect in coactivator assay,[4],minimal effect
same,induced signal,[5],2.5 fold
